From paper PMC10250618, “Synthesis, structure-activity relationships and biological evaluation of benzimidazole derived sulfonylurea analogues as a new class of antagonists of P2Y1 receptor” (Frontiers in Pharmacology, 2023)

Assays:
[1] = test system: HeLa Cell Line; assay: MTT assay, HeLa; format: cell-based; conditions: at 50 µM; triplicate
[2] = target: T1, h-P2Y4 (Homo sapiens, UniProt P51582); assay: Calcium mobilization assay, h-P2Y4 transfected 1321N1 astrocytoma cells; format: cell-based; conditions: final conc of 100 μM; 500 μM UTP
T1 construct: host or cells: human 1321N1 astrocytoma cells, stably transfected
T1 sequence (P51582 whole entry): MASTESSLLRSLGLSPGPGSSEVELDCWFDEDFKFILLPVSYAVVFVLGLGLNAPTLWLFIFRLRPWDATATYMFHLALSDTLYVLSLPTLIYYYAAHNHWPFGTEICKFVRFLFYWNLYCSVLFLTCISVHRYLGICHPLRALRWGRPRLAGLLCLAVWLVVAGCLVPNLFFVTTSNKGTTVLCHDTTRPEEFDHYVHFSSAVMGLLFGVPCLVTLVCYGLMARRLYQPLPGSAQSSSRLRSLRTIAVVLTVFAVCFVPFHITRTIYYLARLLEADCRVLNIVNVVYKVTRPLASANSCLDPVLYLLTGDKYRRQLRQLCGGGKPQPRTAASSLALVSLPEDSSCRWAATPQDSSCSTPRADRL
Description: (§1) Dr. Gary A. Weisman provided human-1321N1 astrocytoma cells that had been transfected by the tP2Y1R, hP2Y2R, hP2Y4R, and rP2Y6R and untransfected 1321N1 astrocytoma cells (University of Missouri Mo., Bond Life Science Center). The DMEM Dulbecco’s Modified Eagle -Medium (Gibco) was added in flasks to cultivate the cell line. 10% of the Fetal bovine serum was also added to the media together with 500 μg/mL of Geneticin (G418) and 1% of the Pen/Strep. The cells in T-75 flask were then cultured and incubated in a CO2 incubator which was maintained at (5%) and 37°C temperature until 90% of the cells were confluent. Throughout the experiment, cells were periodically checked for the confluency and strictly watched for the microbial contamination.
(§2) The FLUOstar Galaxy (BMG LABTECH GmbH, Ortenberg, Germany) microplate reader with two injectors was used to measure the Ca^2+ fluorescence of synthetic compounds. For this assay, 1321N1 transfected cells (t-P2Y1, h-P2Y2, h-P2Y4, and r-P2Y6) were cultured in T-75 flask. When cells reached the confluency of 80%–90%, they were washed with PBS and then Trypsin was added. After trypsinization for 3 min, 20,000 cells/well were allowed to seed in a black wall and 96 well clear bottom plate which was coated with Poly-D-Lysine and allowed to incubate for 24 h in 37°C, 5% CO2 incubator. After incubation, 200 μL culture media was changed with 100 μL HBSS containing Fura-2 AM which is calcium chelating dye and allowed the plate to incubate for 45 min in dark at temp of 37°C in incubator which is maintained with carbon dioxide (5% CO2). After incubation for 45 min, synthesized molecules were added to HBSS washed cells in each well of 96 well plate and re-incubated for 30 min at 37°C. In next step, injection of the endogenous ligand such as ADP through the injector was followed by excitation and emission measurements of Fura-2 AM at 380/520 nm and 340/520. Final volume of the assay per well 200 μL. IC50 values were computed for the compounds displaying more than 50% of activity using Prism 5.0 software (Graph Pad., Inc., San Diego. California, United States) by using analysis i.e., nonlinear regression ([Kassack et al., 2002]; [Ullmann et al., 2005]).

[3] = target: T2, h-P2Y2 (Homo sapiens, UniProt P41231); assay: Calcium mobilization assay, h-P2Y2 transfected 1321N1 astrocytoma cells; format: cell-based; conditions: 500 μM ATP
T2 construct: host or cells: human 1321N1 astrocytoma cells, stably transfected
T2 sequence (P41231 whole entry): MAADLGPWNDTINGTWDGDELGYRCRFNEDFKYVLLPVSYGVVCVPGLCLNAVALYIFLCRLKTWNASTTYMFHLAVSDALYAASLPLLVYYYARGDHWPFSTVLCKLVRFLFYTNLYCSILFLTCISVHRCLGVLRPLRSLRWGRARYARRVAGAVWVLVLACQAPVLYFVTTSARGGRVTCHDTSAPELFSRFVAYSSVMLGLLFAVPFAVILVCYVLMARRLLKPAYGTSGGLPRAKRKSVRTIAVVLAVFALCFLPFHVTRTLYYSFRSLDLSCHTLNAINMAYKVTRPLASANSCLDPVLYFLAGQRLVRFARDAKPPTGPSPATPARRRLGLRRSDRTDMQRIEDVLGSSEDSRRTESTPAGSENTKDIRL
Description: as §1, §2

[4] = target: T3, t-P2Y1 (Meleagris gallopavo, UniProt P49652); assay: Calcium mobilization assay, t-P2Y1 transfected 1321N1 astrocytoma cells; format: cell-based; conditions: 100 μM ADP
T3 construct: host or cells: human 1321N1 astrocytoma cells, stably transfected
T3 sequence (P49652 whole entry): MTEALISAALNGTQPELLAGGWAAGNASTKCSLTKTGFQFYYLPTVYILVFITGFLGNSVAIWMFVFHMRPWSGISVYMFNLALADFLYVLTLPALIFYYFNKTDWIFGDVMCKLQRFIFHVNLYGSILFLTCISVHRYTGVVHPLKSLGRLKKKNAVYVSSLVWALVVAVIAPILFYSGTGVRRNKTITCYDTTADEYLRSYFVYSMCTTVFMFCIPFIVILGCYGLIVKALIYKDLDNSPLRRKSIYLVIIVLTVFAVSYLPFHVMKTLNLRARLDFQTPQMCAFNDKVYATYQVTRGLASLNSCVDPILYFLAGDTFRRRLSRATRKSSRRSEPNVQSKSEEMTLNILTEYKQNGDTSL
Description: as §1, §2

[5] = test system: HEK-293 Cell Line; assay: MTT assay, HEK-293; format: cell-based; conditions: at 50 µM; triplicate
[6] = test system: H-1321N1 Cell Line; assay: MTT assay, non-transfected 1321N1 astrocytoma cells; format: cell-based, human; conditions: at 50 µM; non-transfected astrocytoma 1321N1 cells; triplicate
Description: (§3) A 96-well plate was used to plate 20,000 human 1321N1 astrocytoma cells and allowed for incubation for 24 h at temp of 37°C in CO2 (5%) incubator. Next to this, the prepared culture media was changed to media which was free from FBS, the test compounds were added and the incubation process was repeated. After incubation of 24 h, the serum free media from the wells was discarded, and 100 μL of the reagent i.e., MTT reagent was pipetted. Plate was then additionally incubated at 37°C for 4 h. Utilizing a microplate reader, absorbance was determined at 570 nm and 630 nm for calculation of cell viability (FLUOstarOmega Microplate Reader-BMG LABTECH GmbH, Ortenberg, Germany) ([Sauer et al., 2009]).

[7] = target: T4, r-P2Y6 (Rattus norvegicus, UniProt Q63371); assay: Calcium mobilization assay, r-P2Y6 transfected 1321N1 astrocytoma cells; format: cell-based
T4 construct: host or cells: human 1321N1 astrocytoma cells, stably transfected
T4 sequence (Q63371 whole entry): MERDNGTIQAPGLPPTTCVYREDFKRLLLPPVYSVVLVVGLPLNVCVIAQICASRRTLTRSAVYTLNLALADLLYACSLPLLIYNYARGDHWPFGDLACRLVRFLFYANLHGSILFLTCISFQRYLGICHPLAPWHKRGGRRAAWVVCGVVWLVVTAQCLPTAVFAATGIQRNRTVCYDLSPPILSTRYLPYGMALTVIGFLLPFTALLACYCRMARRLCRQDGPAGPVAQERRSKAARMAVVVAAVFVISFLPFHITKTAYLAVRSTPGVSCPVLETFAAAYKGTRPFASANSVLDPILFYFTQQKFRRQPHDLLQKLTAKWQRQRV
Description: as §1, §2

[8] = target: P2Y1; conditions: Figure 1, reported antagonist; cited from earlier work
[9] = MTT assay, HeLa; format: cell-based; conditions: human, HeLa cells; at 50 µM; triplicate; read-out: HeLa Cell Line (%cytotoxicity ±SEM)
[10] = MTT assay, HEK-293; format: cell-based; conditions: human, HEK-293 cells; at 50 µM; triplicate; read-out: HEK-293 Cell Line (%cytotoxicity ±SEM)
[11] = MTT assay, non-transfected 1321N1 astrocytoma cells; format: cell-based, human; conditions: human, non-transfected 1321N1 astrocytoma cells; at 50 µM; non-transfected astrocytoma 1321N1 cells; triplicate; read-out: H-1321N1 Cell Line (%cytotoxicity ±SEM)
Description: as §3

[12] = test system: hP2Y2; parameters: method as in Bano et al., 2021; conditions: Figure 1, reported antagonist; ref Bano et al., 2021; cited from earlier work

Compound: 2-Amino-5-nitro-N-((4-nitrophenyl)sulfonyl)-1H-benzo [d]imidazole-1-carbox amide [1d]
- HeLa Cell Line (%cytotoxicity ±SEM) [1]: 28.3 ± 0.4%
- % Inhibition h-P2Y4 [2]: 48%
- % Inhibition h-P2Y2 ([3]; final conc of 100 μM): 41%
- % Inhibition t-P2Y1 ([4]; final conc of 100 μM): 43%
- HEK-293 Cell Line (%cytotoxicity ±SEM) [5]: 20.3 ± 0.6%
- H-1321N1 Cell Line (%cytotoxicity ±SEM) [6]: 15.9 ± 0.3%
- r-P2Y6 % Inhibition ([7]; Supplementary Table 2): 39%
- % Inhibition r-P2Y6 ([7]; final conc of 100 μM, 100 μM of UDP): 39%

Compound: CNc1nc(I)nc2c1ncn2C1CC(OP(=O)(O)O)C2(COP(=O)(O)O)CC12 (stereo not drawn) [MRS2500]
- Ki [8]: 0.00078 µM

Compound: Cc1ccc(C(=O)Nc2ccc(S(=O)(=O)O)c3cc(S(=O)(=O)O)cc(S(=O)(=O)O)c23)cc1NC(=O)c1cccc(NC(=O)Nc2cccc(C(=O)Nc3cc(C(=O)Nc4ccc(S(=O)(=O)O)c5cc(S(=O)(=O)O)cc(S(=O)(=O)O)c45)ccc3C)c2)c1 [Suramin, reference compound]
- cytotoxicity at 24 h, 50 µM [9]: 37.5 ± 0.2%
- IC50 ([3]; Ca2+ mobilization inhibition, transfected 1321N1 cells, read-out: IC50 ± SEM h-P2Y2): 3.31 ± 0.08 µM
- IC50 ([4]; Ca2+ mobilization inhibition, transfected 1321N1 cells, read-out: IC50 ± SEM t-P2Y1): 0.15 ± 0.01 µM
- cytotoxicity at 24 h, 50 µM [10]: 11.1 ± 0.2%
- cytotoxicity at 24 h, 50 µM [11]: 12.3 ± 0.2%
- IC50 [12]: 48 µM
